Results on one compound are retold here after article PMC11371747, “The role of l-leucovorin uptake and metabolism in the modulation of 5-fluorouracil efficacy and antifolate toxicity” (Frontiers in Pharmacology, 2024).

The target of experiment [1] is T1, folate receptor α (FRα) (Homo sapiens, UniProt P15328).
T1 construct: endogenous in cells; host or cells: KB cells (FRα++)
Kind of experiment: Intact cell competitive binding assay, displacement of [3H]-folic acid from FRα in KB cells. The protocol:
(§1) In order to determine whether the LV isomers were substrates for either folate receptor α (FRα), RFC and/or PCFT, we used model systems with established overexpression of these receptors or transporters ([Westerhof et al., 1995a]; [Westerhof et al., 1995b]; [Lasry et al., 2008]; [Van der Heijden et al., 2009]).
For FRα we used KB cells ([Westerhof et al., 1995b]). An intact cell binding assay for competitive binding was performed as described previously ([Westerhof et al., 1995a]). Briefly, cells were washed with Hanks balanced salt solution and 6 mM glucose (HBSS, pH 7.4), suspended in 1 mL of this solution (1*10^6 for KB cells) and incubated at 4°C for 15 min with 100 pmol [^3H]-folic acid [(^3H)-FA], in the presence and absence of unlabelled folic acid or LV stereoisomers. Cells were collected by centrifugation and analysed for radioactivity. Relative affinities for FRα were defined as the inverse ratio of compound to displace 50% of radioactive folic acid from FRα. The relative affinity of folic acid was set at 1.

Experiment [2] concerns WiDr LF/LV cells. The experiment in a line: Growth inhibition, SRB assay, WiDr LF/LV. To be noted: WiDr-LF cells, 5 µM d-LV. The experiment is classed as cell-based, human. The protocol:
(§2) Briefly, cells were seeded in triplicate in 96-well plates at their pre-established optimal density (CHO cells: 2,500 cells/100 μL; WiDr and HT29: 3,500 cells/100 μL; WiDr-LF/LV, LS174T: 5,000 cells/100 μL; CaCo2, CaCo2-LF/LV, H292, H28 and MSTO-211H: 6,000 cells/100 μL; H460, SW948 and SW1398: 7,000 cells/100 μL) and were allowed to attach for ∼ 24 h at 37°C in 5% CO2 and 100% humidified incubator. Thereafter, 100 μL of drug dilution without LV, or with 5 μM l-LV/5 μM d-LV/10 μM dL-LV (or any LV alone) were added. Cells were allowed to grow for 72 h at 37°C in 5% CO2 and 100% humidity. The t = 0 h control plate consisted of cells plated on the same day as the other cells, but after 24 h at 37°C in 5% CO2 and 100% humidity, only 100 μL medium was added and the cells were fixed immediately with 50% trichloroacetic acid (TCA) in milliQ water (25 μL per well) and put at 4°C for at least 1 h. Plates were washed five times with water and dried. Cells were stained with the SRB protein dye (0.4% (w/v) in 1% acetic acid. Excess dye was washed away four times with 1% acetic acid and plates were dried again. 200 μL of Tris (10 mM Tris (hydroxymethyl)-aminomethane in MQ) was added and optical density (OD) was read at 492 nm after mixing 2–3 min on a plate shaker.
(Sulforhodamine B stains cellular protein and so reports cell mass.)

Experiment [3] deals with T2, human PCFT (Homo sapiens, UniProt Q96NT5).
T2 construct: expressed in transfected cells; host or cells: CHO/C5 (RFC-deficient Chinese hamster ovary cells, no PCFT)
T2 sequence (Q96NT5 1-459): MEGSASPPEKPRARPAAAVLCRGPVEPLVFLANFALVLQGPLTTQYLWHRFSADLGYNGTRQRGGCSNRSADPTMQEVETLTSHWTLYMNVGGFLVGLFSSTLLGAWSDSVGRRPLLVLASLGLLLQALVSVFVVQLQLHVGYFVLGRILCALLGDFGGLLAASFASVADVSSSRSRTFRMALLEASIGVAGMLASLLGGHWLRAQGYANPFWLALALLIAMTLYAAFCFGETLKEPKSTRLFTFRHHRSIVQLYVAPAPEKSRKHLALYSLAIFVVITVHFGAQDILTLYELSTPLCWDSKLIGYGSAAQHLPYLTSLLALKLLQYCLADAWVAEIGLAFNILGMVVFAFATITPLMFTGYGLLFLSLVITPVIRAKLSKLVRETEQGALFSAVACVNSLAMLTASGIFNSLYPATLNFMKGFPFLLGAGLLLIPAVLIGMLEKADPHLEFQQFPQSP
The experiment in a line: Inhibition of PCFT-mediated [3H]-l-LV influx in CHO/C5-PCFT cells. The experiment is classed as cell-based, Chinese hamster (CHO cells). To be noted: CHO/C5/PCFT cells, 2.5 µM [3H]-l-LV, pH 5.5, 3 min; read-out: Concentration for 50% inhibition of PCFT-mediated [3H]-l-LV influx. The protocol:
as §1
The competitive inhibition by 2.5 μM [^3H]-l-LV influx of PCFT was measured essentially as described for the RFC assay, except that the incubation time was 3 min, at pH 5.5 (the optimal pH for PCFT) and pH 7.4 with increasing amounts of unlabelled LV stereoisomers/antifolate drug. For PCFT too, relative affinities were expressed as the concentration of unlabelled drug necessary to inhibit 50% of [^3H]-l-LV influx.

The target in experiment [4] is T3, thymidylate synthase (TS) (Homo sapiens, UniProt P04818).
T3 construct: The principle of this assay is the measurement of TS enzymatic activity in intact cells; endogenous in cells; host or cells: colon cancer cell lines (WiDr, WiDr-LF, SW1398, LS174T and others)
The experiment in a line: TS in situ inhibition assay (TSIA) in colon cancer cells. The experiment is classed as cell-based. To be noted: WiDr, 5 µM d-LV. The text has this:
The principle of this assay is the measurement of TS enzymatic activity in intact cells. Intact cells will readily internalize radioactively labelled [5-^3H]-deoxycytidine, which will be rapidly converted by deoxycytidine kinase (dCK) to [5-^3H]-dCMP and subsequently deaminated to [5-^3H]-dUMP, which will then serve as a substrate in the TS catalysed reaction to dTMP and ^3H2O; the quantity of ^3H2O formed over time is a measure of intracellular TS activity. […] This is because dCK has a higher, cell cycle independent activity than thymidine kinase 1, which is a cell cycle dependent enzyme. For this purpose, cancer cells were cultured in six wells plates at 2.5 × 10^5 cells/2 mL/well for 24 h. Thereafter, cells were exposed to drugs with or without the LV formulations at the indicated concentrations for 4 h. 2 h before the end of the incubation period [5-^3H]-2′-deoxycytidine (final concentration 1 µM) was added to the cells. […] In most cell lines we quantified dCK activity and dCK mRNA levels.

The subject of experiment [5] is colon cancer cell lines. The experiment in a line: Growth inhibition, SRB assay, panel of colon cancer cell lines. The experiment is classed as cell-based, human. The following applies: all colon cancer cell lines. How it is done:
as §2

Experiment [6] has as its target T4, reduced folate carrier (RFC/SLC19A1) (Homo sapiens, UniProt P41440).
T4 construct: CEM-7A cells, which display 30-fold RFC overexpression relative to wild-type CCRF-CEM cells; endogenous in cells; host or cells: CEM-7A (CCRF-CEM variant, RFC+++ 30-fold)
T4 sequence (P41440 1-591): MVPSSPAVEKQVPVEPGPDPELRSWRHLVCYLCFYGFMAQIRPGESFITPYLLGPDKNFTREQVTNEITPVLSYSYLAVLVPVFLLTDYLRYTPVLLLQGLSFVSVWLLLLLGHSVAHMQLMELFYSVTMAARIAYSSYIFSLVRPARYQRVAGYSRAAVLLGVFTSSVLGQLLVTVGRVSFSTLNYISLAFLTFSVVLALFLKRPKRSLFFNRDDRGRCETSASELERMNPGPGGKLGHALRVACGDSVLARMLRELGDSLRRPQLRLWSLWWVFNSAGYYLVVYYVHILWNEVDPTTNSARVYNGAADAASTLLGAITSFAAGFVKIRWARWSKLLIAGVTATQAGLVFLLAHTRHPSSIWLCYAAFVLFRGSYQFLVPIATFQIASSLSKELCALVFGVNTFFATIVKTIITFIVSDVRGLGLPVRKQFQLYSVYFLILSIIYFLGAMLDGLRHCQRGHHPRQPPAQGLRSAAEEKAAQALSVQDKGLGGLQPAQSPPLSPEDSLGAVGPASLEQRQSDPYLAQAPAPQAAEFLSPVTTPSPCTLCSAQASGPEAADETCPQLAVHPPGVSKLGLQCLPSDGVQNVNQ
The experiment in a line: Inhibition of RFC-mediated [3H]-l-LV influx in CEM-7A cells. The experiment is classed as cell-based. To be noted: 5 µM [3H]-l-LV, 2 min, 37°C, read-out: Concentration for 50% inhibition of [3H]-l-LV influx (RFC). How it is done:
as §1
CEM-7A cells (2 × 10^6) were suspended in 1 mL HBSS and the assay was initiated by addition of 25 μL 200 μM [^3H]-l-LV; 5,000 pmol (i.e., 5 μM final concentration). Incubations proceeded for 2 min at 37°C in the absence and presence of increasing amounts of unlabelled LV/antifolate drug. Blanks consisted of a separate incubation at 4°C or incubation with 100-fold molar excess of unlabelled l-LV. [^3H]-l-LV influx was terminated by adding 9 mL ice-cold HBSS, centrifugation and an additional wash of the cells with 10 mL ice-cold buffer. Cell pellets were then assessed for radioactivity. Relative affinities for RFC are expressed as the concentration of unlabelled drug necessary to inhibit [^3H]-l-LV uptake by 50%.

T1 sequence (P15328 25-257): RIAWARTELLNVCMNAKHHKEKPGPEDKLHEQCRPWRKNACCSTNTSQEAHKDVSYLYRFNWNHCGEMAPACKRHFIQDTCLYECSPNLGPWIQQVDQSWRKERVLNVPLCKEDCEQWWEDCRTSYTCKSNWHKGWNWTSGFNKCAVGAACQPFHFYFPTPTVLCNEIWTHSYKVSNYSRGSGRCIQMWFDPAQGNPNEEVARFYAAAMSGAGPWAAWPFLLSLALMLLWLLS
T3 sequence (P04818 2-313 limits assumed): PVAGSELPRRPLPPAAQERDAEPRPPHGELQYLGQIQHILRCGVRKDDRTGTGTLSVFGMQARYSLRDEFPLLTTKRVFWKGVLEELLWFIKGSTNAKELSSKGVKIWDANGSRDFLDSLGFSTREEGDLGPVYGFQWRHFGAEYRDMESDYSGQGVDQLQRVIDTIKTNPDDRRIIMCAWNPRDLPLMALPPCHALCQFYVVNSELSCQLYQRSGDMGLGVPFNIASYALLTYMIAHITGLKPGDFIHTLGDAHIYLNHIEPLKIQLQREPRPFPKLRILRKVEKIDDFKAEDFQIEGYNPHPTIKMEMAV

On to `Nc1nc2c(c(=O)[nH]1)N(C=O)[C@H](CNc1ccc(C(=O)N[C@@H](CCC(=O)O)C(=O)O)cc1)CN2` [d-LV, (6R)-leucovorin], for which the “Molar excess over folic acid required for displacement of [3H]-FA binding from FRα” value in experiment [1] stood at 69 fold. Moreover, in experiment [1] (100 pmol [3H]-FA, inverse ratio of amount of drug displacing 50% of [3H]-FA, FA set to 1), the “Relative affinity for FRα” value came out at 0.016. For the same compound, the “Increase of IC50 value for 5FU by d-LV” value in experiment [2] is 1.5 fold. Moreover, the IC50 turned out to be 13.3 µM in experiment [3] and 44 µM in experiment [6]. The “Protective effect on the TSIA against antifolates” value in experiment [4] was “does not display any protective effect”. Also, in experiment [5], the “Modulation of 5FU sensitivity” value is reported as “ineffective”.
